Converted amounts (≈) assume the structure as drawn. Read-outs that look alike come from different tables or passages of the source. Square brackets hold non-standard residues; d marks the D form. Ends that are not written are not given here. Peptide text beside a SMILES is read from it.
What was measured:
[1] = tested on: MRPA (P. aeruginosa) CCARM 2180; type: cell-based, Pseudomonas aeruginosa
Experimental: (§1) The minimum growth inhibitory concentrations of the antibacterial peptides of the present invention weremeasured, and the results are shown in Table 3 below.
(§2) Specifically, the strains were grown in CAMHB until the midlog phase, and then diluted with PBS buffer to 1× 10^6 cfu/ml to prepare the bacterial solution, and the antibacterial peptide prepared in Example 1above was diluted with CAMHB to 80 µM, 40 µM, 20 µM, 10 µM, 5 µM, 2.5 µM, 1.25 µM and 0.63 µM, and then the bacterial solution was treated with the same volume.
(§3) The results are the average value of three independent experiments.

[2] = tested on: MRAB (A. baumannii) ATCC BAA 1605; type: cell-based, Acinetobacter baumannii
Experimental: as §1, §2, §3

[3] = tested on: MRSA (S. aureus) KCCM 40510; type: cell-based, Staphylococcus aureus; settings: KCCM 40510, 18 h
Experimental: as §1, §2, §3

[4] = tested on: VRE (E. faecalis) ATCC 51575; type: cell-based, Enterococcus faecalis
Experimental: as §1, §2, §3

[5] = CAMHB, 37° C., 18 hours, average of three experiments

Compound	MIC MRPA (P. aeruginosa) CCARM 2180 ([1]; CCARM 2180, 18 h) [µM]	MIC MRSA (S. aureus) KCCM 40510 [3] [µM]	MIC VRE (E. faecalis) ATCC 51575 ([4]; ATCC 51575, 18 h) [µM]	other results
CC[C@@H](C)[C@@H](NC(=O)[C@@H](Cc1c[nH]c2ccccc12)NC(=O)[C@@H](CC(C)C)NC(=O)[C@@H](CC(C)C)NC(=O)[C@H](N)Cc1c[nH]c2ccccc12)C(=O)NCC(=O)N[C@H](CC(C)C)C(=O)N[C@H](CCCNC(=N)N)C(=O)N[C@H](CCCCN)C(=O)N[C@H](CCCCN)C(N)=O [KSH8, wllwiglrkk] (H-[dW][dL][dL][dW][dI]G[dL][dR][dK][dK]-NH2; N-terminus assumed)	40 (≈ 52.5 µg/mL)	–	–	–
WVLWVWLRKKR-NH2 [LSH1]	20	2.5	2.5	MIC MRAB (A. baumannii) ATCC BAA 1605 ([2]; ATCC BAA 1605, 18 h): 2.5 µM
CC(C)[C@@H](NC(=O)[C@@H](Cc1c[nH]c2ccccc12)NC(=O)[C@@H](CCCNC(=N)N)NC(=O)[C@@H](CCCNC(=N)N)NC(=O)[C@H](N)CCCNC(=N)N)C(=O)N[C@@H](C(=O)N[C@@H](C(=O)N[C@@H](C(=O)N[C@H](Cc1c[nH]c2ccccc12)C(=O)N[C@H](Cc1c[nH]c2ccccc12)C(N)=O)C(C)C)C(C)C)C(C)C [KSH85, rrrwvvvvww] (H-[dR][dR][dR][dW][dV][dV][dV][dV][dW][dW]-NH2; N-terminus assumed)	10 (≈ 14.4 µg/mL)	1.25 (≈ 1.8 µg/mL)	1.25 (≈ 1.8 µg/mL)	MIC MRAB (A. baumannii) ATCC BAA 1605 ([2]; ATCC BAA 1605, 18 h): 10 µM (≈ 14.4 µg/mL)
CC(C)[C@@H](NC(=O)[C@H](N)Cc1c[nH]c2ccccc12)C(=O)N[C@@H](C(=O)N[C@H](Cc1c[nH]c2ccccc12)C(=O)N[C@H](C)C(=O)N[C@H](C)C(=O)N[C@H](Cc1c[nH]c2ccccc12)C(=O)N[C@H](CCCNC(=N)N)C(=O)N[C@H](CCCNC(=N)N)C(=O)N[C@H](CCCNC(=N)N)C(N)=O)C(C)C [KSH72, wvvwaawrrr] (H-[dW][dV][dV][dW][dA][dA][dW][dR][dR][dR]-NH2; N-terminus assumed)	10 (≈ 13.8 µg/mL)	2.5 (≈ 3.46 µg/mL)	5 (≈ 6.92 µg/mL)	MIC MRAB (A. baumannii) ATCC BAA 1605 ([2]; ATCC BAA 1605, 18 h): 2.5 µM (≈ 3.46 µg/mL)
WLLWLYARKKR-NH2 [LSH9]	40	10	10	MIC MRAB (A. baumannii) ATCC BAA 1605 ([2]; ATCC BAA 1605, 18 h): 5 µM
CC(C)C[C@@H](NC(=O)[C@H](N)Cc1c[nH]c2ccccc12)C(=O)N[C@@H](C(=O)N[C@H](Cc1c[nH]c2ccccc12)C(=O)N[C@H](CCCCN)C(=O)N[C@H](Cc1c[nH]c2ccccc12)C(=O)N[C@H](CCCNC(=N)N)C(=O)N[C@H](CCCNC(=N)N)C(=O)N[C@H](CCCNC(=N)N)C(N)=O)C(C)C [KSH37, wlvwkwrrr] (H-[dW][dL][dV][dW][dK][dW][dR][dR][dR]-NH2; N-terminus assumed)	40 (≈ 55.4 µg/mL)	–	5 (≈ 6.92 µg/mL)	–
CC[C@@H](C)[C@@H](NC(=O)[C@H](N)Cc1c[nH]c2ccccc12)C(=O)N[C@@H](C(=O)N[C@H](Cc1c[nH]c2ccccc12)C(=O)N[C@@H](C(=O)N[C@H](Cc1c[nH]c2ccccc12)C(=O)N[C@H](CCCNC(=N)N)C(=O)N[C@H](CCCNC(=N)N)C(=O)N[C@H](CCCNC(=N)N)C(N)=O)[C@H](C)CC)[C@H](C)CC [KSH61, wiiwiwrrr] (H-[dW][dI][dI][dW][dI][dW][dR][dR][dR]-NH2; N-terminus assumed)	–	–	0.63 (≈ 0.872 µg/mL)	–
CC[C@@H](C)[C@@H](NC(=O)[C@@H](Cc1c[nH]c2ccccc12)NC(=O)[C@@H](CC(C)C)NC(=O)[C@H](N)CC(C)C)C(=O)N[C@H](C)C(=O)N[C@H](CC(C)C)C(=O)N[C@H](CCCCN)C(=O)N[C@H](CCCCN)C(=O)N[C@H](CCCCN)C(=O)N[C@H](CCCCN)C(N)=O [KSH12, llwialkkkk] (H-[dL][dL][dW][dI][dA][dL][dK][dK][dK][dK]-NH2; N-terminus assumed)	>40	–	–	–
CC[C@@H](C)[C@@H](NC(=O)[C@@H](Cc1c[nH]c2ccccc12)NC(=O)[C@@H](CCCNC(=N)N)NC(=O)[C@@H](CCCNC(=N)N)NC(=O)[C@H](N)CCCNC(=N)N)C(=O)N[C@H](Cc1c[nH]c2ccccc12)C(=O)N[C@@H](C(=O)N[C@@H](C(=O)N[C@H](Cc1c[nH]c2ccccc12)C(N)=O)[C@H](C)CC)[C@H](C)CC [KSH60, rrrwiwiiw] (H-[dR][dR][dR][dW][dI][dW][dI][dI][dW]-NH2; N-terminus assumed)	–	–	0.63 (≈ 0.872 µg/mL)	–
CC[C@H](C)[C@H](NC(=O)CN)C(=O)NCC(=O)N[C@@H](C)C(=O)N[C@H](C(=O)N[C@@H](CC(C)C)C(=O)N[C@@H](CCCCN)C(=O)N[C@H](C(=O)N[C@@H](CC(C)C)C(=O)N[C@H](C(=O)N[C@H](C(=O)NCC(=O)N[C@@H](CC(C)C)C(=O)N1CCC[C@H]1C(=O)N[C@@H](C)C(=O)N[C@@H](CC(C)C)C(=O)N[C@H](C(=O)N[C@@H](CO)C(=O)N[C@@H](Cc1c[nH]c2ccccc12)C(=O)N[C@H](C(=O)N[C@@H](CCCCN)C(=O)N[C@@H](CCCNC(=N)N)C(=O)N[C@@H](CCCCN)C(=O)N[C@@H](CCCNC(=N)N)C(=O)N[C@@H](CCC(N)=O)C(=O)N[C@@H](CCC(N)=O)C(N)=O)[C@@H](C)CC)[C@@H](C)CC)[C@@H](C)O)[C@@H](C)O)C(C)C)C(C)C [Melittin, reference compound]	–	–	–	MIC MRPA (P. aeruginosa) CCARM 2180 [1, 5]: >40 µM; MIC MRAB (A. baumannii) ATCC BAA 1605 [2, 5]: 1.25 µM (≈ 3.56 µg/mL); MIC VRE (E. faecalis) ATCC 51575 [4, 5]: 1.25 µM (≈ 3.56 µg/mL)
CC[C@@H](C)[C@@H](NC(=O)[C@@H](Cc1c[nH]c2ccccc12)NC(=O)[C@@H](CC(C)C)NC(=O)[C@H](N)CC(C)C)C(=O)NCC(=O)N[C@H](CC(C)C)C(=O)N[C@H](CCCNC(=N)N)C(=O)N[C@H](CCCCN)C(=O)N[C@H](CCCCN)C(=O)N[C@H](CCCNC(=N)N)C(N)=O [KSH13, llwiglrkkr] (H-[dL][dL][dW][dI]G[dL][dR][dK][dK][dR]-NH2; N-terminus assumed)	>40	40 (≈ 51.3 µg/mL)	40 (≈ 51.3 µg/mL)	–
CC[C@@H](C)[C@@H](NC(=O)[C@@H](Cc1c[nH]c2ccccc12)NC(=O)[C@@H](CC(C)C)NC(=O)[C@H](N)Cc1c[nH]c2ccccc12)C(=O)N[C@H](Cc1c[nH]c2ccccc12)C(=O)N[C@H](CCCNC(=N)N)C(=O)N[C@H](CCCNC(=N)N)C(=O)N[C@H](CCCNC(=N)N)C(N)=O [KSH41, wlwiwrrr] (H-[dW][dL][dW][dI][dW][dR][dR][dR]-NH2; N-terminus assumed)	–	2.5 (≈ 3.18 µg/mL)	–	–
CC(C)C[C@@H](NC(=O)[C@H](N)Cc1c[nH]c2ccccc12)C(=O)N[C@@H](C(=O)N[C@H](Cc1c[nH]c2ccccc12)C(=O)N[C@H](CO)C(=O)N[C@H](Cc1c[nH]c2ccccc12)C(=O)N[C@H](CCCNC(=N)N)C(=O)N[C@H](CCCNC(=N)N)C(=O)N[C@H](CCCNC(=N)N)C(N)=O)C(C)C [KSH39, wlvwswrrr] (H-[dW][dL][dV][dW][dS][dW][dR][dR][dR]-NH2; N-terminus assumed)	>40	–	–	–
CC[C@@H](C)[C@@H](NC(=O)[C@@H](Cc1c[nH]c2ccccc12)NC(=O)[C@@H](C)NC(=O)[C@@H](C)NC(=O)[C@H](N)Cc1c[nH]c2ccccc12)C(=O)NCC(=O)N[C@H](CC(C)C)C(=O)N[C@H](CCCNC(=N)N)C(=O)N[C@H](CCCCN)C(=O)N[C@H](CCCCN)C(=O)N[C@H](CCCNC(=N)N)C(N)=O [KSH20, waawiglrkkr] (H-[dW][dA][dA][dW][dI]G[dL][dR][dK][dK][dR]-NH2; N-terminus assumed)	>40	>40	>40	–
